# Assays:
# [1] = tested on: EGFR; experiment: Western blot of EGFR expression in J82 cells; type: cell-based, human; details: J82, 0.16 µmol/L, versus control
# Experimental: (§1) T24 and J82 cell lines were lysed in protein lysis buffer, which included phosphatase inhibitors and a cocktail of protease inhibitors. A BCA kit (SparkJade, China) was used to determine the total protein concentration. After protein denaturation, SDS-PAGE electrophoresis was performed and the protein transferred from the gel to a PVDF membrane (Millipore, USA). Then primary antibodies against cleaved caspases-3, cleaved PARP, AKT, phosphorylated AKT, ERK1/2, phosphorylated ERK1/2, EGFR, mTOR, phosphorylated mTOR and Tubulin (CST, USA) were diluted at 1:1000 at 4 °C overnight. The membranes were then washed and incubated with secondary antibodies dissolved in 5% nonfat milk. A chemiluminescence imaging system was used to detect the signals (Tanon, China).
# (§2) EGFR is overexpressed in malignant urothelial cells, which is associated with the deterioration, invasiveness and metastasis of tumors. It is a potential therapeutic target for bladder carcinoma. Therefore, we examined the expression of EGFR and its downstream proteins after treating bladder cancer cells with CHNQD-01281 (Supplementary Fig. S11). […] Taken together, CHNQD-01281 inhibited the proliferation of bladder cancer cells and induced apoptosis through EGFR/PI3K/AKT and EGFR/ERK pathways to exert antitumor effects.
# [2] = Tissue distribution in tumor and main organs; type: in vivo, C57BL/6 mice; details: tumor, heart, duodenum and spleen
# Experimental: To further investigate the safety profile of CHNQD-01281 in vivo, the HE staining of the heart, liver, spleen, lung, kidney and duodenum of C57 mice were analyzed after the single dose of CHNQD-01281 (100 mg/kg, i.p.). […] The distribution of CHNQD-01281 in tumor and main organs of C57BL/6 mice was then analyzed.
# Fig. S14. Safety profile and tissue distribution of CHNQD-01281 in vivo. A Representative H&E staining images (scale bar: 50 μm) of main organs from vehicle and CHNQD-01281 (100 mg/kg, ip.) treated C57BL/6 mice (n = 3). B Bodyweight evaluation of mouse after treatment with vehicle and CHNQD-01281. C Tissue distribution of CHNQD-01281 in C57BL/6 mice (n = 3).
# [3] = tested on: cleaved PARP; experiment: Western blot of apoptosis-related protein; type: cell-based, human; details: Fig. S11b
# Experimental: as §1
# (§3) Furthermore, treatment with CHNQD-01281 induced a dose-dependent increase in the total apoptosis of T24 and J82 cell lines. […] Meanwhile, the expression of apoptosis-related proteins cleaved PARP and cleaved caspase-3 were detected by Western blot. […] Therefore, CHNQD-01281 can induce DNA damage to arrest the cell cycle at the G0/G1 phase, affect the expression of DNA damage repair enzyme PARP, and finally induce apoptosis of bladder cancer cell lines.
# [4] = tested on: cleaved caspase-3; experiment: Western blot of apoptosis-related protein; type: cell-based, human; details: Fig. S11b
# Experimental: as §1, §3
# [5] = tested on: p-ERK/ERK; experiment: Western blot of EGFR downstream proteins; type: cell-based, human; details: 0.16 µmol/L
# Experimental: as §1, §2
# [6] = tested on: p-AKT/AKT; experiment: Western blot of EGFR downstream proteins; type: cell-based, human; details: 0.16 µmol/L
# Experimental: as §1, §2
# [7] = tested on: p-mTOR/mTOR; experiment: Western blot of EGFR downstream proteins; type: cell-based, human; details: 0.16 µmol/L
# Experimental: as §1, §2
# [8] = tested on: MB49 tumor; experiment: MB49 homologous (syngeneic) tumor model; type: in vivo, C57BL/6 mice
# Experimental: Specific pathogen free (SPF)-grade C57BL/6 mice and BALB/c-nu mice were purchased from Jinan Pengyue Experimental Animal Center (license No. SCXK 20190003). The protocol was approved by the Research Review Committee of the Ocean University of China. All mice were housed in 12-h light and 12-h dark conditions in which the humidity was 50% ± 10% and the temperature was 22 ± 2 °C. All mice had free access to food and water. The human bladder cancer cell line T24 was injected subcutaneously into BALB/c-nu mice to construct a xenograft tumor model. The cell suspension of mouse bladder cancer cell line MB49 was injected into C57BL/6 mice subcutaneously to construct a syngeneic tumor model.
# Fixed tissues were embedded in paraffin and then sectioned. The specimens were incubated with antibodies against Ki67, CD3, CD4, CD8 (Servicebio, China) and EGFR (ABclonal, China) at 4 °C overnight. The next day, the slides were washed with 1 × PBST three times for 5 min each and stained with the secondary antibodies and Hoechst 33342 dye (Beyotime, China) for 60 min for IF. For IHC staining, the sections were developed with a rabbit/mouse HRP kits (DAB) (Beyotime, China) according to the manufacturer’s instructions.
# In addition, apoptosis, necrosis, and increased eosinophil cytoplasm were observed and there was a large number of lymphocyte infiltration in the treatment group.
# [9] = tested on: T24 cell line; experiment: Cell cycle analysis (Muse Cell Analyzer); type: cell-based, human
# Experimental: (§4) T24 and J82 cell lines were seeded in 6-well plates (3 × 10^5 cells/well) and treated with different concentrations of CHNQD-01281 or DMSO. Cells were then harvested, washed with ice-cold PBS, and fixed in 70% cold ethanol overnight at − 20 °C. Fixed cells were then collected, washed, and stained with 200 μL of Muse™ cell cycle reagent for 30 min in the dark at room temperature. The cell cycle distribution was immediately analyzed by Muse Cell Analyzer (Millipore, Billerica, MA, USA).
# (§5) The G1/S transition is a key checkpoint in the cell cycle that regulates DNA replication. As the cell cycle progresses, G1 phase arrest leads to apoptosis or repair mechanisms.
# [10] = tested on: J82 cell line; experiment: Cell cycle analysis (Muse Cell Analyzer); type: cell-based, human
# Experimental: as §4, §5
# [11] = tested on: EGFR; experiment: Western blot of EGFR expression in T24 cells; type: cell-based, human; details: T24, 0.16 µmol/L, versus control
# Experimental: as §1, §2
compound,measurement,setting,value
"C[C@H]1CCC/C=C/[C@@H]2C[C@H](O)C[C@H]2[C@H](OC(=O)/C=C/c2cccnc2)/C=C/C(=O)O1 [CHNQD-01281, Brefeldin A 4-O-3-(pyridin-3-yl) acrylate]",maximum down-regulation of EGFR expression,[1],87.61%
same,time of rapid concentration elimination,[2],≤ 1 h
same,maximum expression level of cleaved PARP,[3],0.95 fold of the control group
same,maximum expression level of cleaved caspase-3,[4],1.23 fold of the control group
same,decrease of p-ERK/ERK expression level,[5],96.95%
same,decrease of p-AKT/AKT expression level,[6],99.96%
same,decrease of p-mTOR/mTOR expression level,[7],60.36%
same,mice with tumor disappearance,"[8]; 10 mg/kg intratumoral, no recurrence within 30 days after cessation",20%
same,life prolongation rate (ILS),"[8]; 10 mg/kg, intratumoral injection, QD",68.16%
same,"infiltration of CD3+, CD4+ and CD8+ T cells (immunofluorescence)","[8]; 10 mg/kg, intratumoral injection, QD, tumor tissue",significantly increased
same,proportion of cells in S phase,"[9]; T24, 0.04 µmol/L (control 20.5%)",18.9%
same,G0/G1 cells,"[9]; T24, 0.04 µmol/L (control 61.4%)",65.0%
same,proportion of cells in S phase,"[9]; T24, 0.08 µmol/L (control 20.5%)",13.5%
same,G0/G1 cells,"[9]; T24, 0.08 µmol/L (control 61.4%)",75.2%
same,proportion of cells in S phase,"[9]; T24, 0.16 µmol/L (control 20.5%)",11.4%
same,G0/G1 cells,"[9]; T24, 0.16 µmol/L (control 61.4%)",80.6%
same,proportion of cells in S phase,"[10]; J82, 0.04 µmol/L (control 27.5%)",26.0%
same,G0/G1 cells,"[10]; J82, 0.04 µmol/L (control 53.1%)",60.3%
same,proportion of cells in S phase,"[10]; J82, 0.08 µmol/L (control 27.5%)",22.1%
same,G0/G1 cells,"[10]; J82, 0.08 µmol/L (control 53.1%)",66.3%
same,proportion of cells in S phase,"[10]; J82, 0.16 µmol/L (control 27.5%)",18.2%
same,G0/G1 cells,"[10]; J82, 0.16 µmol/L (control 53.1%)",73.6%
same,maximum down-regulation of EGFR expression,[11],77.61%

# — publication PMC11358582, “Discovery of a potential bladder cancer inhibitor CHNQD-01281 by regulating EGFR and promoting infiltration of cytotoxic T cells” (Marine Life Science & Technology, 2024)
